Experimental data reported in US8771665B2 (Cocrystal Discovery, Inc., priority 2010, dated 2014).
Counter-ions that a name gives are not always drawn.

Molecular target: T1, HCV1b NS5B polymerase delta 21 (Hepatitis C virus genotype 1b, UniProt P26663)
T1 construct: purified HCV1b NS5B polymerase delta 21
Experiment: RNA-Dependent RNA HCV NS5B (Polymerase) Assay and IC50 Determination
Assay type: biochemical
Method in brief: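 Purified NS5B Δ21 (0.6 μg) with polyA:U16 template, 10 μM UTP plus α-32P UTP in Tris-HCl pH 7.5, 5 mM MgCl2, 0.5% Triton X-100, 60 min at 23°C with varied compound concentrations. Radiolabelled RNA captured on filters, quantified by phosphorimaging; IC50 from triplicate assays.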

T1 sequence (P26663 2420-2989): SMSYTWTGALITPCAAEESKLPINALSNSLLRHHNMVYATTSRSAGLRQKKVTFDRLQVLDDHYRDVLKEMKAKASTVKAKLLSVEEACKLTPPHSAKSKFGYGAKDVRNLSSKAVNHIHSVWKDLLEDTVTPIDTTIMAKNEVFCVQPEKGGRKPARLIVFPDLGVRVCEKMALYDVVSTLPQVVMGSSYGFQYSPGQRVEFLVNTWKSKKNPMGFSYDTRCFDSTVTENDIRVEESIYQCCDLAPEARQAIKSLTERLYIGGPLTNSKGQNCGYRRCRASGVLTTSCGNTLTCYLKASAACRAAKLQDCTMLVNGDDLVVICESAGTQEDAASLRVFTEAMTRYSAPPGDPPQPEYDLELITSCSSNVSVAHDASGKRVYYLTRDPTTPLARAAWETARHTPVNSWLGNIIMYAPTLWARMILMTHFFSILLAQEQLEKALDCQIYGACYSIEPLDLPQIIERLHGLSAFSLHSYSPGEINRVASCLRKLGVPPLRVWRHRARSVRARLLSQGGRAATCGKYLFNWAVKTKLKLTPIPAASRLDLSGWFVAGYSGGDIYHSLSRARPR

Cc1oc(=O)oc1COC(=O)c1sc(-c2ccc(NC(=O)c3cscn3)cc2)cc1C1=C(C2CCC(C)CC2)CN(C)CC1 (stereo not shown) [Example 108, 3-[1-Methyl-5-(4-methyl-cyclohexyl)-1,2,3,6-tetrahydro-pyridin-4-yl]-5-{4-[(thiazole-4-carbonyl)-amino]-phenyl}-thiophene-2-carboxylic acid 5-methyl-2-oxo-[1,3]-dioxol-4-ylmethyl ester]
IC50: < 3 µM

CC1CCC(C2=C(c3cc(-c4ccccc4)sc3C(=O)O)CCN(CCCc3ccccc3)C2)CC1 (stereo not shown) [Example 110, 3-[5-(4-Methyl-cyclohexyl)-1-(4-phenyl-propyl)-1,2,3,6-tetrahydro-pyridin-4-yl]-5-phenyl-thiophene-2-carboxylic acid]
IC50: > 10 µM

CC1CCC(C2=C(c3cc(C#CC(C)(C)C)sc3C(=O)O)CNCC2)CC1 (stereo not shown) [Example 111, 5-(3,3-Dimethyl-but-1-ynyl)-3-[4-(4-methyl-cyclohexyl)-1,2,5,6-tetrahydro-pyridin-3-yl]-thiophene-2-carboxylic acid]
IC50: < 3 µM

CC1CCC(C2=C(c3cc(C#CC(C)(C)C)sc3C(=O)O)CN(C)CC2)CC1 (stereo not shown) [Example 112, 5-(3,3-Dimethyl-but-1-ynyl)-3-[1-methyl-4-(4-methyl-cyclohexyl)-1,2,5,6-tetrahydro-pyridin-3-yl]-thiophene-2-carboxylic acid]
IC50: < 3 µM

CC1CCC(C2=C(c3cc(C#CC(C)(C)C)sc3C(=O)O)CN(CCO)CC2)CC1 (stereo not shown) [Example 113, 5-(3,3-Dimethyl-but-1-ynyl)-3-[1-(2-hydroxy-ethyl)-4-(4-methyl-cyclohexyl)-1,2,5,6-tetrahydro-pyridin-3-yl]-thiophene-2-carboxylic acid]
IC50: < 3 µM

CC1CCC(C2=C(c3cc(C#CC(C)(C)C)sc3C(=O)O)CN(CCCO)CC2)CC1 (stereo not shown) [Example 114, 5-(3,3-Dimethyl-but-1-ynyl)-3-[1-(3-hydroxy-propyl)-4-(4-methyl-cyclohexyl)-1,2,5,6-tetrahydro-pyridin-3-yl]-thiophene-2-carboxylic acid]
IC50: < 3 µM

CC1CCC(C2=C(c3cc(C#CC(C)(C)C)sc3C(=O)O)CN(CC3CCOC3)CC2)CC1 (stereo not shown) [Example 117, 5-(3,3-Dimethyl-but-1-ynyl)-3-[4-(4-methyl-cyclohexyl)-1-(tetrahydro-furan-3-ylmethyl)-1,2,5,6-tetrahydro-pyridin-3-yl]-thiophene-2-carboxylic acid]
IC50: < 3 µM

CC1CCC(C2=C(c3cc(C#CC(C)(C)C)sc3C(=O)O)CN(CCF)CC2)CC1 (stereo not shown) [Example 124, 5-(3,3-Dimethyl-but-1-ynyl)-3-[1-(2-fluoro-ethyl)-4-(4-methyl-cyclohexyl)-1,2,5,6-tetrahydro-pyridin-3-yl]-thiophene-2-carboxylic acid]
IC50: < 3 µM

CC1CCC(C2=C(c3cc(C#CC(C)(C)C)sc3C(=O)O)CCN(Cc3ccccn3)C2)CC1 (stereo not shown) [Example 127, 5-(3,3-Dimethyl-but-1-ynyl)-3-[5-(4-methyl-cyclohexyl)-1-pyridin-2-ylmethyl-1,2,3,6-tetrahydro-pyridin-4-yl]-thiophene-2-carboxylic acid]
IC50: < 3 µM

Cc1cc(C)n2nc(CN3CCC(c4cc(C#CC(C)(C)C)sc4C(=O)O)=C(C4CCC(C)CC4)C3)nc2n1 (stereo not shown) [Example 128, 5-(3,3-Dimethyl-but-1-ynyl)-3-[1-(5,7-dimethyl-[1,2,4]triazolo[1,5-a]pyrimidin-2-ylmethyl)-5-(4-methyl-cyclohexyl)-1,2,3,6-tetrahydro-pyridin-4-yl]-thiophene-2-carboxylic acid]
IC50: < 3 µM

CC1CCC(C2=C(c3cc(-c4ccc(C#Cc5cscn5)cc4)sc3C(=O)O)CCN(C)C2)CC1 (stereo not shown) [Example 129, 3-[1-Methyl-5-(4-methyl-cyclohexyl)-1,2,3,6-tetrahydro-pyridin-4-yl]-5-(4-thiazol-4-ylethynyl-phenyl)-thiophene-2-carboxylic acid, hydrochloride salt]
IC50: < 3 µM

CC1CCC(C2=C(c3cc(-c4ccc(NC(=O)c5cscn5)cc4)sc3C(=O)O)CCN(Cc3ccccn3)C2)CC1 (stereo not shown) [Example 131, 3-[5-(4-Methyl-cyclohexyl)-1-pyridin-2-ylmethyl-1,2,3,6-tetrahydro-pyridin-4-yl]-5-{4-[(thiazole-4-carbonyl)-amino]-phenyl}-thiophene-2-carboxylic acid]
IC50: < 3 µM

CC1CCC(C2=C(c3cc(-c4ccc(-c5cc6nccc(N)n6n5)cc4)sc3C(=O)O)CCN(C)C2)CC1 (stereo not shown) [Example 132, 5-[4-(7-Amino-pyrazolo[1,5-a]pyrimidin-2-yl)-phenyl]-3-[1-methyl-5-(4-methyl-cyclohexyl)-1,2,3,6-tetrahydro-pyridin-4-yl]-thiophene-2-carboxylic acid, hydrochloride salt]
IC50: < 3 µM

CC1CCC(C2=C(c3cc(C#CC(C)(C)C)sc3C(=O)O)CCN(Cc3ccncc3)C2)CC1 (stereo not shown) [Example 133, 5-(3,3-Dimethyl-but-1-ynyl)-3-[5-(4-methyl-cyclohexyl)-1-pyridin-4-ylmethyl-1,2,3,6-tetrahydro-pyridin-4-yl]-thiophene-2-carboxylic acid]
IC50: 3 to 10 µM

CC1CCC(C2=C(c3cc(C#CC4CC4)sc3C(=O)O)CCN(Cc3ccccn3)C2)CC1 (stereo not shown) [Example 134, 5-Cyclopropylethynyl-3-[5-(4-methyl-cyclohexyl)-1-pyridin-2-ylmethyl-1,2,3,6-tetrahydro-pyridin-4-yl]-thiophene-2-carboxylic acid]
IC50: < 3 µM

CC1CCC(C2=C(c3cc(-c4ccc(C5=CC6N=CC=CC6O5)cc4)sc3C(=O)O)CCN(C)C2)CC1 (stereo not shown) [Example 135, 5-[4-(3a,7a-Dihydro-furo[3,2-b]pyridin-2-yl)-phenyl]-3-[1-methyl-5-(4-methyl-cyclohexyl)-1,2,3,6-tetrahydro-pyridin-4-yl]-thiophene-2-carboxylic acid]
IC50: < 3 µM

CC1CCC(C2=C(c3cc(C#CC(C)(C)C)sc3C(=O)O)CCN(Cc3c(C(F)(F)F)nn(C)c3Cl)C2)CC1 (stereo not shown) [Example 136, 3-[1-(5-Chloro-1-methyl-3-trifluoromethyl-1H-pyrazol-4-ylmethyl)-5-(4-methyl-cyclohexyl)-1,2,3,6-tetrahydro-pyridin-4-yl]-5-(3,3-dimethyl-but-1-ynyl)-thiophene-2-carboxylic acid]
IC50: > 10 µM

COCCN1CCC(C2CCC(C)CC2)=C(c2cc(C#CC(C)(C)C)sc2C(=O)O)C1 (stereo not shown) [Example 137, 5-(3,3-Dimethyl-but-1-ynyl)-3-[1-(2-methoxy-ethyl)-4-(4-methyl-cyclohexyl)-1,2,5,6-tetrahydro-pyridin-3-yl]-thiophene-2-carboxylic acid]
IC50: > 10 µM

CC1CCC(C2=C(c3cc(C#CC4CC4)sc3C(=O)O)CCN(CCO)C2)CC1 (stereo not shown) [Example 138, 5-Cyclopropylethynyl-3-[1-(2-hydroxy-ethyl)-5-(4-methyl-cyclohexyl)-1,2,3,6-tetrahydro-pyridin-4-yl]-thiophene-2-carboxylic acid]
IC50: < 3 µM

CC1CCC(C2=C(c3cc(-c4ccc(-c5nc6cccnc6n5C)cc4)sc3C(=O)O)CCN(C)C2)CC1 (stereo not shown) [Example 139, 5-[4-(3-Methyl-3H-imidazo[4,5-b]pyridin-2-yl)-phenyl]-3-[1-methyl-5-(4-methyl-cyclohexyl)-1,2,3,6-tetrahydro-pyridin-4-yl]-thiophene-2-carboxylic acid]
IC50: > 10 µM

CC1CCC(C2=C(c3cc(-c4ccc(-c5nc6cccnc6[nH]5)cc4)sc3C(=O)O)CCN(C)C2)CC1 (stereo not shown) [Example 140, 5-[4-(3H-Imidazol-[4,5-b]pyridin-2-yl)-phenyl]-3-[1-methyl-5-(4-methyl-cyclohexyl)-1,2,3,6-tetrahydro-pyridin-4-yl]-thiophene-2-carboxylic acid]
IC50: 3 to 10 µM

CC1CCC(C2=C(c3cc(-c4ccc(-c5cc6ncccn6n5)cc4)sc3C(=O)O)CCN(Cc3ccccn3)C2)CC1 (stereo not shown) [Example 141, 3-[5-(4-Methyl-cyclohexyl)-1-pyridin-2-ylmethyl-1,2,3,6-tetrahydro-pyridin-4-yl]-5-(4-pyrazolo[1,5-a]pyrimidin-2-yl-phenyl)-thiophene-2-carboxylic acid]
IC50: 3 to 10 µM

Cc1nn(C)cc1CN1CCC(c2cc(C#CC(C)(C)C)sc2C(=O)O)=C(C2CCC(C)CC2)C1 (stereo not shown) [Example 142, 5-(3,3-Dimethyl-but-1-ynyl)-3-[1-(1,3-dimethyl-1H-pyrazol-4-ylmethyl)-5-(4-methyl-cyclohexyl)-1,2,3,6-tetrahydro-pyridin-4-yl]-thiophene-2-carboxylic acid]
IC50: < 3 µM

CC1CCC(C2=C(c3cc(-c4ccccc4)sc3C(=O)O)CCN(Cc3ccc4ccccc4n3)C2)CC1 (stereo not shown) [Example 143, 3-[5-(4-Methyl-cyclohexyl)-1-quinolin-2-ylmethyl-1,2,3,6-tetrahydro-pyridin-4-yl]-5-phenyl-thiophene-2-carboxylic acid]
IC50: > 10 µM

CC1CCC(C2=C(c3cc(-c4ccccc4)sc3C(=O)O)CCN(Cc3ccnc(Br)c3)C2)CC1 (stereo not shown) [Example 144, 3-[1-(2-Bromo-pyridin-4-ylmethyl)-5-(4-methyl-cyclohexyl)-1,2,3,6-tetrahydro-pyridin-4-yl]-5-phenyl-thiophene-2-carboxylic acid]
IC50: 3 to 10 µM

CC1CCC(C2=C(c3cc(-c4ccccc4)sc3C(=O)O)CCN(Cc3ccnc(-c4cccs4)c3)C2)CC1 (stereo not shown) [Example 145, 3-[5-(4-Methyl-cyclohexyl)-1-(2-thiophen-2-yl-pyridin-4-ylmethyl)-1,2,3,6-tetrahydro-pyridin-4-yl]-5-phenyl-thiophene-2-carboxylic acid]
IC50: > 10 µM

CC1CCC(C2=C(c3cc(-c4ccccc4)sc3C(=O)O)CCN(Cc3c(Cl)cncc3Cl)C2)CC1 (stereo not shown) [Example 146, 3-[1-(3,5-Dichloro-pyridin-4-ylmethyl)-5-(4-methyl-cyclohexyl)-1,2,3,6-tetrahydro-pyridin-4-yl]-5-phenyl-thiophene-2-carboxylic acid]
IC50: > 10 µM

CC1CCC(C2=C(c3cc(-c4ccccc4)sc3C(=O)O)CCN(Cc3ccnc(-c4ccc(F)cc4)c3)C2)CC1 (stereo not shown) [Example 147, 3-[1-[2-(4-Fluoro-phenyl)-pyridin-4-ylmethyl]-5-(4-methyl-cyclohexyl)-1,2,3,6-tetrahydro-pyridin-4-yl]-5-phenyl-thiophene-2-carboxylic acid]
IC50: > 10 µM
